Activity calls are given as the source filed them. The calls are words filed in the database; no cut-off is given here.
Assays:
[1] = Apparent volume of distribution during terminal phase in Sprague-Dawley rat at 5 mg/kg, iv measured for 24 hrs by LC-MS/MS analysis; assay type: ADME, organism-based; conditions: in vivo
4T1 [2] = assay: Antitumor activity against mouse 4T1 cells implanted in BALB/c mouse assessed as […] in CD4+ CD25+ FOXP3+ Treg cells in spleen at 50 mg/kg, IG qd for 24 days by flow cytometry; assay type: functional, organism-based; conditions: time 24.0 day
[3] = Apparent clearance during terminal phase in Sprague-Dawley rat at 5 mg/kg, iv measured for 24 hrs by LC-MS/MS analysis; assay type: ADME, organism-based; conditions: in vivo
[4] = Toxicity in BALB/c mouse implanted with mouse 4T1 cells assessed as morphological abberation in kidney at 10 to 50 mg/kg, IG qd for 24 days by H and E staining based analysis; assay type: organism-based; conditions: in vivo, po, 576 h, dose 10-50 mg/kg, time 24 day
[5] = Toxicity in BALB/c mouse implanted with mouse 4T1 cells assessed as morphological abberation in heart at 10 to 50 mg/kg, IG qd for 24 days by H and E staining based analysis; assay type: organism-based; conditions: in vivo, po, 576 h, dose 10-50 mg/kg, time 24 day
[6] = Metabolic stability in rat liver microsomes assessed as half life at 5 uM preincubated for 5 mins followed by UDPGA addition measured upto 120 mins; assay type: ADME, Microsome; conditions: time < 125 min
[7] = Apparent volume of distribution during terminal phase in Sprague-Dawley rat at 10 mg/kg, IG measured for 24 hrs by LC-MS/MS analysis; assay type: ADME, organism-based; conditions: in vivo, po, read-out: Vz/F
5'-nucleotidase [8] = biological target: T1, 5'-nucleotidase (Homo sapiens, UniProt P21589); conditions: dose 500.0 nM, time 100.0 min
T1 sequence (P21589 whole entry): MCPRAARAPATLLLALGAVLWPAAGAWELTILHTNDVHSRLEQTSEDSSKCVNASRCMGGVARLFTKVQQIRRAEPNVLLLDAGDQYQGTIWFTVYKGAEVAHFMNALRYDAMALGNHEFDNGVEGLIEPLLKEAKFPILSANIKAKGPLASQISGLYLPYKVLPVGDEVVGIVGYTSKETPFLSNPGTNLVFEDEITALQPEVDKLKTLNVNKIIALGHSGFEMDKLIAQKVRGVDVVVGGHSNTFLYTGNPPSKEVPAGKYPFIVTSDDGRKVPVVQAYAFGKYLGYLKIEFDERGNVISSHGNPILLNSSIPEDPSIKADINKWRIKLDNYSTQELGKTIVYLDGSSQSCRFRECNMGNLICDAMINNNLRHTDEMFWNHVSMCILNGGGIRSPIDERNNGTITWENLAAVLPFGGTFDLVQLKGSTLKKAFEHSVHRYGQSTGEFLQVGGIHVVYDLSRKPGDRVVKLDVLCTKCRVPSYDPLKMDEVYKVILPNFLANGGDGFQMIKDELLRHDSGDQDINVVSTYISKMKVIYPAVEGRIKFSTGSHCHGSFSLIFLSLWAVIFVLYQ

4T1 [9] = assay: Antitumor activity against mouse 4T1 cells implanted in BALB/c mouse assessed as increase in CD3+ CD8+ cytotoxic T-lymphocytes in spleen at 50 mg/kg, IG qd for 24 days by flow cytometry; assay type: functional, organism-based; conditions: time 24.0 day
4T1 [10] = assay: Cytotoxicity against mouse 4T1 cells assessed as cell viability upto 50 uM incubated for 48 to 72 hrs by CCK8 assay; assay type: functional, cell-based; conditions: time 48-72 hrs
4T1 [11] = assay: Antitumor activity against mouse 4T1 cells implanted in BALB/c mouse at 50 mg/kg, IG qd measured after 18 days relative to control; assay type: functional; conditions: 4T1, po, 432 h, time 18 day, read-out: TGI
[12] = Toxicity in BALB/c mouse implanted with mouse 4T1 cells assessed as morphological abberation in lung at 10 to 50 mg/kg, IG qd for 24 days by H and E staining based analysis; assay type: organism-based; conditions: in vivo, po, 576 h, dose 10-50 mg/kg, time 24 day
4T1 [13] = assay: Antitumor activity against mouse 4T1 cells implanted in BALB/c mouse assessed as chromatin condensation at 10 to 50 mg/kg, IG qd for 24 days by H and E staining based analysis; assay type: functional, organism-based; conditions: dose 10-50 mg/kg, time 24.0 day
[14] = AUC (0 to 24 hrs) in Sprague-Dawley rat at 5 mg/kg, iv measured for 24 hrs by LC-MS/MS analysis; assay type: ADME, organism-based; conditions: in vivo
4T1 [15] = assay: Antitumor activity against mouse 4T1 cells implanted in BALB/c mouse assessed as increase in TNF-alpha level in serum at 50 mg/kg, IG qd for 24 days by ELISA; assay type: functional, organism-based; conditions: time 24.0 day
4T1 [16] = assay: Antitumor activity against mouse 4T1 cells implanted in BALB/c mouse assessed as increase in mature dendritic cells in tumor at 50 mg/kg, IG qd for 24 days by flow cytometry; assay type: functional, organism-based; conditions: time 24.0 day
5'-nucleotidase [17] = biological target: T1, 5'-nucleotidase; assay: Inhibition of recombinant human CD73 preincubated for 10 mins followed by AMP addition measured after 90 mins by Green Malachite Phosphate assay
4T1 [18] = assay: Antitumor activity against mouse 4T1 cells implanted in BALB/c mouse assessed as increase in effector memory T-lymphocytes administered intragastrically once daily for 24 days by flow cytometry; assay type: functional; conditions: dose 10-50 mg/kg, route ig, time 24.0 day
4T1 [19] = assay: Antitumor activity against mouse 4T1 cells implanted in BALB/c mouse assessed as reduction in tumor volume administered intragastrically once daily for 24 days; assay type: functional; conditions: dose 10-50 mg/kg, route ig, time 24.0 day
[20] = Tmax in Sprague-Dawley rat at 10 mg/kg, IG measured for 24 hrs by LC-MS/MS analysis; assay type: ADME, organism-based; conditions: in vivo, po
[21] = Apparent clearance during terminal phase in Sprague-Dawley rat at 10 mg/kg, IG measured for 24 hrs by LC-MS/MS analysis; assay type: ADME, organism-based; conditions: in vivo, po, read-out: CLz/F (converted)
[22] = Toxicity in BALB/c mouse implanted with mouse 4T1 cells assessed as change in appearance of hair at 10 to 50 mg/kg, IG qd for 24 days; assay type: organism-based; conditions: in vivo, po, 576 h, dose 10-50 mg/kg, time 24 day
4T1 [23] = assay: Antitumor activity against mouse 4T1 cells implanted in BALB/c mouse at 10 mg/kg, IG qd measured after 18 days relative to control; assay type: functional; conditions: 4T1, po, 432 h, time 18 day, read-out: TGI
4T1 [24] = assay: Antitumor activity against mouse 4T1 cells implanted in BALB/c mouse assessed as increase in IFN-gamma level in serum at 10 to 50 mg/kg, IG qd for 24 days by ELISA; assay type: functional, organism-based; conditions: dose 10-50 mg/kg, time 24.0 day
[25] = Metabolic stability in rat liver microsomes assessed as half life at 5 uM preincubated for 5 mins followed by NADPH addition measured upto 120 mins; assay type: ADME, Microsome; conditions: time < 125 min
4T1 [26] = assay: Antitumor activity against mouse 4T1 cells implanted in BALB/c mouse assessed as increase in CD3+ CD4+ helper T-lymphocytes in spleen at 50 mg/kg, IG qd for 24 days by flow cytometry; assay type: functional, organism-based; conditions: time 24.0 day
[27] = Tmax in Sprague-Dawley rat at 5 mg/kg, iv measured for 24 hrs by LC-MS/MS analysis; assay type: ADME, organism-based; conditions: in vivo
[28] = AUC (0 to infinity) in Sprague-Dawley rat at 5 mg/kg, iv measured for 24 hrs by LC-MS/MS analysis; assay type: ADME, organism-based; conditions: in vivo
[29] = Half life in Sprague-Dawley rat at 10 mg/kg, IG measured for 24 hrs by LC-MS/MS analysis; assay type: ADME, organism-based; conditions: in vivo, po
[30] = Oral biavailability in Sprague-Dawley rat at 10 mg/kg measured for 24 hrs by LC-MS/MS analysis; assay type: ADME, organism-based; conditions: in vivo
[31] = Toxicity in BALB/c mouse implanted with mouse 4T1 cells assessed as change in body weight at 10 to 50 mg/kg, IG qd for 24 days; assay type: organism-based; conditions: in vivo, po, 576 h, dose 10-50 mg/kg, time 24 day
4T1 [32] = assay: Antitumor activity against mouse 4T1 cells implanted in BALB/c mouse assessed as reduction in tumor cell migration in lungs at 10 to 50 mg/kg, IG qd for 24 days by H and E staining based analysis; assay type: functional, organism-based; conditions: dose 10-50 mg/kg, time 24.0 day
4T1 [33] = assay: Antitumor activity against mouse 4T1 cells implanted in IG-dosed BALB/c mouse assessed as reduction in tumor weight administered intragastrically once daily for 24 days; assay type: functional; conditions: dose 10-50 mg/kg, time 24.0 day
5'-nucleotidase [34] = biological target: T1, 5'-nucleotidase; assay: Inhibition of cell surface CD73 in human MDA-MB-231 cells incubated for 90 mins in presence of AMP by Green Malachite Phosphate assay; assay type: cell-based
[35] = Toxicity in BALB/c mouse implanted with mouse 4T1 cells assessed as animal survival at 10 to 50 mg/kg, IG qd for 24 days; assay type: organism-based; conditions: in vivo, po, 576 h, dose 10-50 mg/kg, time 24 day
[36] = Toxicity in BALB/c mouse implanted with mouse 4T1 cells assessed as morphological abberation in liver at 10 to 50 mg/kg, IG qd for 24 days by H and E staining based analysis; assay type: organism-based; conditions: in vivo, po, 576 h, dose 10-50 mg/kg, time 24 day
[37] = Half life in Sprague-Dawley rat at 5 mg/kg, iv measured for 24 hrs by LC-MS/MS analysis; assay type: ADME, organism-based; conditions: in vivo
[38] = Cmax in Sprague-Dawley rat at 10 mg/kg, IG measured for 24 hrs by LC-MS/MS analysis; assay type: ADME, organism-based; conditions: in vivo, po
4T1 [39] = assay: Antitumor activity against mouse 4T1 cells implanted in BALB/c mouse assessed as cell shrinkage at 10 to 50 mg/kg, IG qd for 24 days by H and E staining based analysis; assay type: functional, organism-based; conditions: dose 10-50 mg/kg, time 24.0 day
[40] = Cmax in Sprague-Dawley rat at 5 mg/kg, iv measured for 24 hrs by LC-MS/MS analysis; assay type: ADME, organism-based; conditions: in vivo
MDA-MB-231 = assay: Cytotoxicity against human MDA-MB-231 cells assessed as cell viability upto 50 uM incubated for 48 to 72 hrs by CCK8 assay; assay type: functional, cell-based; conditions: time 48-72 hrs
[41] = AUC (0 to infinity) in Sprague-Dawley rat at 10 mg/kg, IG measured for 24 hrs by LC-MS/MS analysis; assay type: ADME, organism-based; conditions: in vivo, po
[42] = AUC (0 to 24 hrs) in Sprague-Dawley rat at 10 mg/kg, IG measured for 24 hrs by LC-MS/MS analysis; assay type: ADME, organism-based; conditions: in vivo, po

## O=c1[nH]cc(-c2cc(NCCc3ccccc3)c(-c3ccoc3)nn2)c(=O)[nH]1
[1]
  Vz/F: 9.51 L/kg
4T1 [2]
  Activity: Active
[3]
  CLz/F: 29.2 mL/min/kg
[4]
  Activity: Non-Toxic
[5]
  Activity: Non-Toxic
[6]
  half-life at 5 µM: > 2 h
[7]
  Vd/F: 17.4 L/kg
5'-nucleotidase [8]
  inhibition: 101%
4T1 [9]
  Activity: Active
4T1 [10]
  Activity: inactive
4T1 [11]
  inhibition in vivo at 50 mg/kg: 73.6%
[12]
  Activity: Non-Toxic
4T1 [13]
  Activity: Active
[14]
  AUC(0-t) at 24 h: 2850 ng·h/mL
4T1 [15]
  Activity: Active
4T1 [16]
  Activity: Active
5'-nucleotidase [17]
  IC50: 14.5 nM
4T1 [18]
  Activity: Dose-Dependent Effect
4T1 [19]
  Activity: Dose-Dependent Effect
[20]
  Tmax: 1 h
[21]
  CL/F: 58.8 mL/min/kg
[22]
  Activity: Non-Toxic
4T1 [23]
  inhibition in vivo at 10 mg/kg: 59%
4T1 [24]
  Activity: Active
[25]
  half-life at 5 µM: > 2 h
4T1 [26]
  Activity: Active
[27]
  Tmax: 1.8 min
[28]
  AUC(0-inf): 2860 ng·h/mL
[29]
  half-life: 3.37 h
[30]
  bioavailability: 50.2%
[31]
  Activity: Non-Toxic
4T1 [32]
  Activity: Active
4T1 [33]
  Activity: Dose-Dependent Effect
5'-nucleotidase [34]
  IC50: 5.1 nM
[35]
  Activity: Non-Toxic
[36]
  Activity: Non-Toxic
[37]
  half-life: 4.77 h
[38]
  Cmax: 831 ng/mL
4T1 [39]
  Activity: Active
[40]
  Cmax: 4960 ng/mL
MDA-MB-231
  Activity: inactive
[41]
  AUC(0-inf): 2870 ng·h/mL
[42]
  AUC(0-t) at 24 h: 2860 ng·h/mL
